Reference: ChEMBL document CHEMBL5726174, “Therapeutic compounds and uses thereof” (2019)
pIC50: −log10 of the molar value.

The compounds below were run against T1, Bromodomain-containing protein 9 (Homo sapiens, UniProt Q9H8M2) (assay: IC50 measurements for inhibitors using BRD9 AlphaLisa Binding Assay: His/Flag epitope tagged BRD9134-239 was cloned, expressed, and purified to homogeneity. […] After 20 minutes incubation at room temperature AlphaLisa Streptavidin Acceptor Beads (Perkin-AL125C) and AlphaLisa Nickel donor beads (Perkin AS 10 ID) were added to a final concentration of 15 ug/mL each.).
T1 sequence (Q9H8M2 whole entry): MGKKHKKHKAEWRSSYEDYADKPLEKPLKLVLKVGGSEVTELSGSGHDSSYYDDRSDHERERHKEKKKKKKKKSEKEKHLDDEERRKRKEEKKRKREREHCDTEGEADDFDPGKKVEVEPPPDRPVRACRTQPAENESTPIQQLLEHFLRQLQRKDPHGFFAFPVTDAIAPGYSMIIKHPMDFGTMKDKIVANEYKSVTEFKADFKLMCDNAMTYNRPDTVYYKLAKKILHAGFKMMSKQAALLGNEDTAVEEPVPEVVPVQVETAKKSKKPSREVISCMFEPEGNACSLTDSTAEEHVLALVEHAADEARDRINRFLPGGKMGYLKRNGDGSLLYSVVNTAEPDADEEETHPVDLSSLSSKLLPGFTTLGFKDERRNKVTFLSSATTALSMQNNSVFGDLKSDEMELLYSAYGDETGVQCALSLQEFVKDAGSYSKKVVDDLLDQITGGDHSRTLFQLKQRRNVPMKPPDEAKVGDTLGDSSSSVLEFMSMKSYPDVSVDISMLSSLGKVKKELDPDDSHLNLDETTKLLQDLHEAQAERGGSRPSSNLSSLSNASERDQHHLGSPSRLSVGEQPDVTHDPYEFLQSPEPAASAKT
C=CCn1cc(-c2cc(OC)c(C(=O)N3CCOCC3)cc2OC)c2cc(C)[nH]c2c1=O gave a pIC50 of 8.05. For CC(C)(O)c1ccc(-c2cn(CCC3CC3)c(=O)c3[nH]ccc23)cc1, the pIC50 was 6.55. Work on C/C=C/Cn1cc(-c2cc(C(=O)NCC)ccc2OC)c2cc[nH]c2c1=O yielded a pIC50 of 7.55. Work on CCCCn1cc(-c2cc(C#N)ccc2OC)c2cc[nH]c2c1=O yielded a pIC50 of 7.34.
